# Measured values from US20250368649A1, “TETRAHYDROPYRIDOPYRIMIDINE PAN-KRAS INHIBITORS” (Mirati Therapeutics, Inc., priority 2022, published 2025).
# Tests used:
# A549 cells = experiment: Inhibition of KRas-mediated phosphorylation of ERK (Cisbio HTRF pERK), A549 cells; type: cell-based; details: Homo sapiens, single point at 100 nM, 3 hrs compound incubation
# HCT116 cells = experiment: Inhibition of KRas-mediated phosphorylation of ERK (Cisbio HTRF pERK), HCT116 cells; type: cell-based; details: Homo sapiens, HCT-116, single point at 100 nM, 3 hrs compound incubation
# H460 cells = experiment: Inhibition of KRas-mediated phosphorylation of ERK (Cisbio HTRF pERK), H460 cells; type: cell-based; details: Homo sapiens, NCI-H460, single point at 100 nM, 3 hrs compound incubation
# H358 cells = experiment: Inhibition of KRas-mediated phosphorylation of ERK (Cisbio HTRF pERK), H358 cells; type: cell-based; details: Homo sapiens, NCI-H358, single point at 100 nM, 3 hrs compound incubation
# H727 cells = experiment: Inhibition of KRas-mediated phosphorylation of ERK (Cisbio HTRF pERK), H727 cells; type: cell-based; details: Homo sapiens; for IC50: NCI-H727, 3 h, 3 hr compound incubation, Cisbio pERK HTRF; for inhibition at 0.1 µM: NCI-H727, single point at 100 nM, 3 hrs compound incubation
# KRas G12R = KRas G12R (Homo sapiens, UniProt P01116, G12R); experiment: biochemical; details: Binding to KRas (IC50 nM) G12R, TR-FRET displacement, KRas G12R
# KRas G12D = KRas G12D (Homo sapiens, UniProt P01116, G12D); experiment: biochemical; details: Binding to KRas (IC50 nM) G12D, TR-FRET displacement, KRas G12D
# ASPC1 cells = experiment: Inhibition of KRas-mediated phosphorylation of ERK (Cisbio HTRF pERK), ASPC1 cells; type: cell-based; details: Homo sapiens, AsPC-1 cells; for IC50: ASPC1, 3 h, 3 hr compound incubation, Cisbio pERK HTRF; for inhibition at 0.1 µM: ASPC1, single point at 100 nM, 3 hrs compound incubation
# KRas G12V = KRas G12V (Homo sapiens, UniProt P01116, G12V); experiment: biochemical; details: Binding to KRas (IC50 nM) G12V, TR-FRET displacement, KRas G12V
# Chain of KRas G12V (P01116 1-169 isoform P01116-2 G12V): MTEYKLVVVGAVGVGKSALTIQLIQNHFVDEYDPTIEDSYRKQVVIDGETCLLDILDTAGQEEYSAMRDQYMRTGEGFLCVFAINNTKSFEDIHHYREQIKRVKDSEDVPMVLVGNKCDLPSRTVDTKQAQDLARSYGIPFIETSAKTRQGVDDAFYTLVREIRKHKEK
# Chain of KRas G12D (P01116 1-169 isoform P01116-2 G12D): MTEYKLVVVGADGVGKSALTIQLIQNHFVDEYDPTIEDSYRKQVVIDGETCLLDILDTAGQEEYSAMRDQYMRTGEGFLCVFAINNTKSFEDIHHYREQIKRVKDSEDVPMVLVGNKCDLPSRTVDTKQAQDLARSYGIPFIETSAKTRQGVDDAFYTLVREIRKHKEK
# Chain of KRas G12R (P01116 1-169 isoform P01116-2 G12R): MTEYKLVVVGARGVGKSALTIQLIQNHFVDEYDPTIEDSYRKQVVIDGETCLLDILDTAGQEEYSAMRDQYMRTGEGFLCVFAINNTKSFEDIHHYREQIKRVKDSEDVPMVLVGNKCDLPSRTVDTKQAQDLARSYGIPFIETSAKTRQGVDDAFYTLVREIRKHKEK
Structure (SMILES),inhibition at 0.1 µM (A549 cells),inhibition at 0.1 µM (HCT116 cells),inhibition at 0.1 µM (H460 cells),inhibition at 0.1 µM (H358 cells),IC50 (H727 cells),inhibition at 0.1 µM (H727 cells),IC50 (KRas G12R),IC50 (KRas G12D),IC50 (ASPC1 cells),inhibition at 0.1 µM (ASPC1 cells),IC50 (KRas G12V)
"Oc1cc(N2CCc3c(nc(OC[C@@]45CCCN4C[C@H](F)C5)nc3N3CCCC4(CCO4)C3)C2)c2c(Cl)c(F)ccc2c1 (stereo partly drawn) [Example 463, 5-chloro-6-fluoro-4-(2-(((2R,7aS)-2-fluorohexahydro-1H-pyrrolizin-7a-yl)methoxy)-4-(1-oxa-6-azaspiro[3.5]nonan-6-yl)-5,6-dihydropyrido[3,4-d]pyrimidin-7(8H)-yl)naphthalen-2-ol]",18%,-3%,2%,-13%,597 nM,20%,< 2 nM,< 2 nM,615 nM,15%,< 2 nM
"CCc1c(F)ccc2cc(O)cc(N3CCc4c(nc(OC[C@@]56CCCN5C[C@H](F)C6)nc4N4CCCn5nc(CN(C)S(=O)(=O)NC)cc5C4)C3)c12 [Example 237, 7-(8-ethyl-7-fluoro-3-hydroxy-1-naphthyl)-2-(((2R,7aS)-2-fluorotetrahydro-1H-pyrrolizin-7a(5H)-yl)methoxy)-4-(2-((methylsulfamoyl)methylamino)methyl-7,8-dihydro-4H-pyrazolo[1,5-a][1,4]diazepin-5(6H)-yl)-6,8-dihydro-5H-pyrido[3,4-d]pyrimidine]",30%,5%,-16%,7%,1640 nM,22%,19 nM,7 nM,639 nM,10%,13 nM
"CCc1c(F)ccc2cc(O)cc(N3CCc4c(nc(OC[C@@]56CCCN5C[C@H](F)C6)nc4N4CCCC5(C4)NC(=O)NC5=S)C3)c12 (stereo partly drawn) [Example 250, 7-(7-(8-ethyl-7-fluoro-3-hydroxynaphthalen-1-yl)-2-(((2R,7aS)-2-fluorohexahydro-1H-pyrrolizin-7a-yl)methoxy)-5,6,7,8-tetrahydropyrido[3,4-d]pyrimidin-4-yl)-4-thioxo-1,3,7-triazaspiro[4.5]decan-2-one]",36%,26%,36%,34%,763 nM,25%,9 nM,19 nM,283 nM,-2%,10 nM
"CCc1c(F)ccc2cc(O)cc(N3CCc4c(nc(OC[C@@]56CCCN5C[C@H](F)C6)nc4N4CCCCC(COC(C)C(=O)N(C)C)C4)C3)c12 (stereo partly drawn) [Example 252, 2-((1-(7-(8-ethyl-7-fluoro-3-hydroxynaphthalen-1-yl)-2-(((2R,7aS)-2-fluorohexahydro-1H-pyrrolizin-7a-yl)methoxy)-5,6,7,8-tetrahydropyrido[3,4-d]pyrimidin-4-yl)azepan-3-yl)methoxy)-N,N-dimethylpropanamide]",16%,14%,3%,-7%,1740 nM,0%,7 nM,23 nM,1950 nM,-5%,11 nM
